The values below come from PubChem BioAssay AID504572 (Johns Hopkins Ion Channel Center, 2011).

The target in this experiment is Short transient receptor potential channel 6 (Mus musculus) (UniProt Q61143). Nature of the experiment: mouse TRPC6 channel inhibitors, SAR follow-up, HEK293 cells, membrane potential dye, IC50 (AID 504572). The following applies: acetylcholine-evoked membrane potential dye, FDSS.
Chain of Short transient receptor potential channel 6 (Mus musculus) (Q61143 whole entry, looked up): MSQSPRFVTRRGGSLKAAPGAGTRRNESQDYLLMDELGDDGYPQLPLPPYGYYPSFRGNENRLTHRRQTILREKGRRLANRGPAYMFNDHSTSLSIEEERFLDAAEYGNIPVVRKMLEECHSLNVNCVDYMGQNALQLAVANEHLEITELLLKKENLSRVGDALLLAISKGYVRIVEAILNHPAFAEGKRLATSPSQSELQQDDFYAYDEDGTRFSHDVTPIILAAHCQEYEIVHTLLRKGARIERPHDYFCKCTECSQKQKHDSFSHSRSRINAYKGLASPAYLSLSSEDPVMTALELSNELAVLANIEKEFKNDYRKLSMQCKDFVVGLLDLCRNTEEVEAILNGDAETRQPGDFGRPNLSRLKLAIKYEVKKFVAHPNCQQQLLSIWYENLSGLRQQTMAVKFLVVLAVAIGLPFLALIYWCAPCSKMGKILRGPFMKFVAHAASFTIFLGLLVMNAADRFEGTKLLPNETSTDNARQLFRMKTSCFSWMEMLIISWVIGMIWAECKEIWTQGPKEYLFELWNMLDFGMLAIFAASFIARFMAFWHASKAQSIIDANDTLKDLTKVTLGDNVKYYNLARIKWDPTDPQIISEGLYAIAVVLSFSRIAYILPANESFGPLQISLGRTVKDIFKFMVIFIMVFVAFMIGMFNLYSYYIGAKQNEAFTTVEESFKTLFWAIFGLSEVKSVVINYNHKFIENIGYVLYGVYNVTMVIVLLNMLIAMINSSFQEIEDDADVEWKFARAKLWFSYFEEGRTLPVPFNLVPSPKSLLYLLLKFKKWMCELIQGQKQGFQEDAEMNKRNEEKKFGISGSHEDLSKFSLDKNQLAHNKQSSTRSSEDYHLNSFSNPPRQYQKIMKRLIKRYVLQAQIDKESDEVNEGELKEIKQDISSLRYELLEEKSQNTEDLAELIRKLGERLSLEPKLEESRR

Take `COc1ccc(OC)c(CNc2ccc3c(c2)ncn3C(C)(C)C)c1`: the concentration for half-maximal inhibition (IC50) is 2.7 µM.

Consider `CCOc1ccc(CNc2ccc3c(c2)ncn3C(C)(C)C)cc1`, for which the IC50 is 2.51 µM.

For the molecule `CC(C)(C)n1cnc2cc(NCc3ccc(Cl)cc3Cl)ccc21`, the IC50 is 6.42 µM.

Take `COc1ccccc1CNc1ccc2c(c1)ncn2C(C)(C)C`: the IC50 was 5.54 µM.

`CCOc1ccccc1CNc1ccc2c(c1)ncn2C(C)(C)C`: the half-maximal inhibitory concentration (IC50) was 2.16 µM.

As to `CC(C)(C)n1cnc2cc(NCc3ccccc3Cl)ccc21`, the half-inhibitory concentration (IC50) was 4.76 µM.

One may read the IC50 as the concentration that gives 50% inhibition.
